According to PMC10302582, “Unveiling the Potential of BenzylethyleneAryl–Urea Scaffolds for the Design of New Onco Immunomodulating Agents” (Pharmaceuticals, 2023):
Where two headings read alike, the source gives them in different places.

What was measured:
[1] = system: HT-29 (colon adenocarcinoma); experiment: MTT cell proliferation assay, HT-29; type: cell-based; details: Homo sapiens, read-out: IC50 HT-29
Procedure: (§1) After the supernatant was discarded, we solved the formazan crystal in 100 µL of DMSO. The absorbance was then registered at 550 nm using a plate lector. For all concentrations of any compound, cell viability was expressed as the percentage of the ratio between the mean absorbance of the treated cells and the mean absorbance of the untreated cells. Three to five experiments were performed to establish the IC50 values (i.e., concentration half inhibiting cell proliferation, we used GraphPad Prism 7 software).

[2] = system: A-549 (pulmonary adenocarcinoma); experiment: MTT cell proliferation assay, A-549; type: cell-based; details: Homo sapiens, read-out: IC50 A-549
Procedure: as §1

[3] = system: HEK-293 (human embryonic kidney cells); experiment: MTT cell proliferation assay, HEK-293; type: cell-based; details: HEK293, 48 h treatment
Procedure: (§2) The action on cell proliferation caused by our developed compounds was studied using an MTT assay using the human tumor cell lines of HT-29 (colon adenocarcinoma) and A-549 (pulmonary adenocarcinoma), as well as toward the non-tumor cell line HEK-293 (human embryonic kidney cells), Jurkat T-cells and human microvessel endothelial cells (HMEC-1).
(§3) In general, 5 × 10^3 (HT-29, A549, HMEC-1, Jurkat and HEK-293) cells per well were seeded in 96-well plates with 1:1 dilutions of the compounds in a volume of 100 μL of the cell media. The 3-(4,5-dimethylthiazol-2-yl)-2,5-diphenyltetrazolium bromide (MTT; Sigma Chemical Co.) dye exclusion assay was performed, and after 48 h (37 °C, 5% CO2 in a humid atmosphere), 10 μL of MTT (5 mg/mL in phosphate-buffered saline, PBS) was added to each well and incubated for 3 h at 37 °C. After the supernatant was discarded, we solved the formazan crystal in 100 µL of DMSO. The absorbance was then registered at 550 nm using a plate lector. For all concentrations of any compound, cell viability was expressed as the percentage of the ratio between the mean absorbance of the treated cells and the mean absorbance of the untreated cells. Three to five experiments were performed to establish the IC50 values (i.e., concentration half inhibiting cell proliferation, we used GraphPad Prism 7 software).

Jurkat T-cells = experiment: MTT cell proliferation assay, Jurkat T-cells; type: cell-based; details: Homo sapiens, Jurkat, 48 h treatment
Procedure: as §2, §3

[4] = system: human microvessel endothelial cells (HMEC-1); experiment: MTT cell proliferation assay, HMEC-1; type: cell-based; details: Homo sapiens
Procedure: as §2, §3

PD-L1 = molecular target: T1, PD-L1 (Homo sapiens, UniProt Q9NZQ7); experiment: PD-L1 relative quantification by flow cytometry in HT-29 cells; type: cell-based; details: for inhibition rate of PD-L1: HT-29, total PD-L1, dose not stated; for total PD-L1 (%) expression: HT-29 cells, 24 h, relative to DMSO control = 100
T1 construct: assess the effect of our new ureas on these two proteins only on the HT-29 cancer cell line through the use of flow cytometry; endogenous in cells; host or cells: HT-29
Procedure: The cells were incubated for a period of time of one day with doses of each of the selected compounds at two different doses: 20 and 100 µM concentrations.
The effects of the compounds on the target in the cancer cell lines compounds were tested using 20 and 100 µM doses. For that, 10^5 cells per well were seeded on a 12-well plate for 24 h with the corresponding dose of the tested compound in a total volume of 500 μL of cell media. To determine the total PD-L1 and VEGFR-2, the cells were collected and fixed with 4% in a PBS of formaldehyde. After this, a treatment with 0.5% in PBS Triton^TM X-100 permeabilized the membranes. Finally, the cells were treated with FITC Mouse monoclonal Anti-Human VEGFR-2 (ab184903) and Alexa Fluor® 647 Rabbit monoclonal Anti-PD-L1 (ab215251).
To determine surface PD-L1 and VEGFR-2, the assay used was similar to the above but avoided the permeabilization step (Triton^TM X-100).

[5] = system: HT-29 cells co-cultured with THP-1; experiment: Cancer cell proliferation in co-cultures of HT-29 and THP-1; type: cell-based, human; details: 100 μM
Procedure: To establish the potential of the selected compounds as immunomodulator agents, we studied the effect of the selected compounds on HT-29 cell proliferation when co-cultured with human monocytic leukemia cell line THP-1. For the study, we used different proportions of cancer and immune cells. Standard protocol proportions were 1:5 cancer/immune cells. We include a test using a 2:1 proportion of HT-29 cells to THP-1 cells. The tests were performed for two periods of time: 24 and 48 h, using 100 μM doses of the selected compounds and BMS-8 as the reference compound.
(§4) To determine the action of the compounds on cancer cell proliferation in co-culture with immune cells, 10^5 or 2 × 10^5 of the HT-29 cells line were seeded in each well of 12-well plates and left at 37 °C for 24 h. Then, the cancer cells were treated with IFN-γ (10 ng/mL; human, Invitrogen®, Waltham, MA, USA) containing 5 × 10^5 or 10^5, respectively, of THP-1 cells per well and the corresponding compound at 100 μM or DMSO for the positive control. After 24 h/48 h of incubation, the supernatants were collected to establish the alive THP-1 cells using FSC and SCC flow cytometry. In addition, cancer cells were collected with trypsin, fixed with 4% in PBS paraformaldehyde and counted using flow cytometry.

[6] = system: THP-1 cells co-cultured with HT-29; experiment: Immune cell proliferation in co-cultures of HT-29/THP-1; type: cell-based, human; details: 100 μM
Procedure: We also determined the effect of the selected compounds on the human monocyte cells THP-1 in the described co-cultures (see Table 6).
as §4

CD80 = CD80 detection on membrane of co-cultured THP-1; type: cell-based, human; details: 1:5 HT-29/THP-1; 24 h; relative to non-treated co-cultured THP-1
Text: (§5) Reducing the expression of CD11b has become a promising target for immune modulation in anticancer therapies. For that reason, we decided to study the effect of our compounds on CD11b in THP-1 cells co-cultured with HT-29. We also determined the relative amount of CD80, a common surface marker for monocytes.
(§6) The results are related to non-treated THP-1 cells when they were co-cultured with HT-29.
(§7) The action of the compounds on CDs in co-cultured THP-1 immune cells with cancer cell line HT-29 was tested by treating them with the compounds for 24 h/48 h (see Section 4.2.5). Surface CD11b and CD80 was determined by collecting THP-1 with trypsin, fixing with formaldehyde and staining with FITC Mouse monoclonal Anti-Human CD80 (Sigma-Aldrich SAB4700142) and Alexa Fluor® 647 Rabbit monoclonal Anti-CD11b (Merck #MABF366, Rahway, NJ, USA).

CD11b = CD11b detection on membrane of co-cultured THP-1; type: cell-based, human; details: for % CD11b expression in membrane of THP-1: 1:5 HT-29/THP-1, 24 h, relative to non-treated co-cultured THP-1; for reduction of CD11b expression: THP-1 co-cultured with HT-29
Text: as §5, §6, §7

T1 sequence (Q9NZQ7 19-290): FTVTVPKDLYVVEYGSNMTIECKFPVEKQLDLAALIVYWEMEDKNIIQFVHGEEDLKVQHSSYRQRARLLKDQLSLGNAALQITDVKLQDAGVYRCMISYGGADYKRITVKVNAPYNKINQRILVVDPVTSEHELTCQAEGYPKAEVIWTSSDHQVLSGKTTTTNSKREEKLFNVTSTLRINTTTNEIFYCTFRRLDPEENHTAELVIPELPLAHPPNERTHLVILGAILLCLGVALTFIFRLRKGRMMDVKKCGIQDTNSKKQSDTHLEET

Row | SMILES | IC50 [3] [µM] | inhibition rate of PD-L1 (PD-L1) | total PD-L1 (%) expression (PD-L1; 20 μM) [%] | total PD-L1 (%) expression (PD-L1; 100 μM) [%] | HT-29 cancer cell proliferation in co-culture ([5]; 1:5 HT-29/THP-1, 24 h) | HT-29 cancer cell proliferation in co-culture ([5]; 1:5 HT-29/THP-1, 48 h) | HT-29 cancer cell proliferation in co-culture ([5]; 2:1 HT-29/THP-1, 24 h) | HT-29 cancer cell proliferation in co-culture ([5]; 2:1 HT-29/THP-1, 48 h) | THP-1 cell proliferation in co-culture ([6]; 1:5 HT-29/THP-1, 24 h) | THP-1 cell proliferation in co-culture ([6]; 1:5 HT-29/THP-1, 48 h) | THP-1 cell proliferation in co-culture ([6]; 2:1 HT-29/THP-1, 24 h) | THP-1 cell proliferation in co-culture ([6]; 2:1 HT-29/THP-1, 48 h) | % CD80 expression in membrane of THP-1 (CD80) [%] | % CD11b expression in membrane of THP-1 (CD11b) [%] | melting point [°C] | IC50 ([1]; HT-29, MTT, 48 h treatment) [µM] | IC50 ([2]; A549, MTT, 48 h treatment) [µM] | IC50 (Jurkat T-cells; 48 h) [µM] | IC50 ([4]; HMEC-1, 48 h, 48 h treatment) [µM] | reduction of CD11b expression (CD11b) | further results
1 | COc1ccc(CCCc2cccc(NC(=O)Oc3ccccc3)c2)cc1 [C.1] | > 100 | 30% | 70 ± 16 | 91 ± 7 | 48 ± 8 | 52 ± 3 | 70 ± 8 | 66 ± 8 | 104 ± 8 | 97 ± 8 | 124 ± 6 | 113 ± 7 | 96 ± 1 | 79 ± 9 | 89 to 91 | – | – | – | – | – | IC50 ([1]; HT-29, 48 h): > 100 µM; IC50 ([2]; A549, 48 h): > 100 µM; IC50 (Jurkat T-cells): > 100 µM; IC50 ([4]; HMEC-1, 48 h treatment): > 100 µM
2 | COc1ccc(CCCc2cccc(NC(=O)Nc3ccc(F)cc3)c2)cc1 [C.3] | > 100 | 30% | 70 ± 4 | 222 ± 69 | 78 ± 8 | 64 ± 3 | 67 ± 9 | 57 ± 5 | 87 ± 8 | 78 ± 5 | 113 ± 26 | 91 ± 18 | 93 ± 2 | 67 ± 22 | 181 to 183 | > 100 | > 100 | > 100 | > 100 | about 35% | –
3 | COc1ccc(CCCc2cccc(NC(=O)Nc3ccc(OC)cc3)c2)cc1 [C.12] | > 100 | around 75% | 25 ± 5 | 96 ± 1 | 84 ± 2 | 67 ± 11 | 93 ± 8 | 89 ± 10 | 95 ± 18 | 90 ± 6 | 94 ± 5 | 90 ± 2 | 89 ± 2 | 73 ± 4 | 181 to 183 | > 100 | 1.2 ± 0.2 | > 100 | > 100 | – | –
4 | COc1ccc(CCCc2cccc(NC(=O)Nc3ccccc3OC)c2)cc1 [C.14] | > 100 | 50% | 45 ± 11 | 145 ± 8 | 64 ± 14 | 68 ± 8 | 82 ± 7 | 58 ± 5 | 99 ± 10 | 91 ± 6 | 110 ± 7 | 86 ± 3 | 92 ± 1 | 66 ± 3 | 82 to 85 | > 100 | > 100 | > 100 | > 100 | about 35% | –
